Counter-ions that a name gives are not always drawn.
Legend:
sigma binding site = target: T1, sigma binding site (Rattus norvegicus, UniProt Q9R0C9); assay: Sigma binding affinity using [^3 H]-(+)-3-(3'-hydroxyphenyl)-N-(1'-propyl)-piperdine (3PPP); settings: [^3 H]PPP radioligand
T1 construct: from tissue
Description: (§1) Sigma binding affinities are measured using [^3 H]-(+)-3-(3'-hydroxyphenyl)-N-(1'-propyl)-piperdine, referred to in the following Table I as 3PPP. This test is carried out according to the procedures of B. L. Largent, et al, Proc. Natl. Acad. Sci., USA, 1984; 81:5618. The ability of the compounds to bind muscarinic antagonist sites was determined invitro using [^3 H]quinuclidinyl benzylate (RQNB) according to the procedure of M. Watson, J. Pharmacol. Exp. Ther. 1986; 237-411.

[1] = system: muscarinic antagonist sites; assay: Binding to muscarinic antagonist sites using [^3 H]quinuclidinyl benzylate (RQNB); settings: [^3 H]quinuclidinyl benzylate radioligand
Description: as §1

T1 sequence (Q9R0C9 whole entry): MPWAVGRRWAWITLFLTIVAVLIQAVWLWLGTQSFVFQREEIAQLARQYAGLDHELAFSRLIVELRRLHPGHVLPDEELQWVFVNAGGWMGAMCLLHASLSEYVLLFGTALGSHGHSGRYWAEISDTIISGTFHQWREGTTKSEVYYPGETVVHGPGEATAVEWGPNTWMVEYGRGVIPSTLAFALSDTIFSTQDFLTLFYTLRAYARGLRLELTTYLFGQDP

Row | IC50 (sigma binding site) | RQNB % Inhibition @ 1 μM [1] | SMILES
1 | 0.62 nM | 6% | CCCN1CCC=C(c2cc(-c3ccc(C)cc3)on2)C1 [Example 5B, 3-[3'-(1'-propyl-1', 2', 5', 6'-tetrahydropyridinyl)]-5-(4'-methylphenyl)isoxazole oxalate]
2 | 9.9 nM | 10% | CCCN1CCC=C(c2cc(-c3cccc(C)c3)on2)C1 [Example 7B, 3-[3'-(1'-propyl-1', 2', 5', 6'-tetrahydropyridinyl)]-5-(3'-methylphenyl)isoxazole oxalate]
3 | > 10000 nM | 23% | CCCN1CCC=C(c2cc(-c3ccccc3OC)no2)C1 [Example 9A, 3-(2'-Methoxyphenyl)-5-[3'-(1'-propyl-1', 2', 5', 6'-tetrahydropyridinyl)]isoxazole oxalate]
4 | 7.05 nM | 10% | CCCN1CCC=C(C2=NOC(c3ccccc3)C2)C1 (stereo not shown) [Example 1, 3-[3'-(1'-propyl-1', 2', 5', 6'-tetrahydropyridinyl)]-5-phenyl-2-isoxazoline]
5 | 10000 nM | 12% | CCCN1CCC=C(c2cc(-c3ccccc3OC)on2)C1 [Example 9B, 3-[3'-(1'-propyl-1', 2', 5', 6'-tetrahydropyridinyl)]-5-(2'-methoxyphenyl)isoxazole oxalate]
6 | 0.067 nM | 10% | CCCN1CCC=C(c2cc(-c3ccc(C)cc3)no2)C1 [Example 5A, 3-(4'-Methylphenyl)-5-[3'-(1'-propyl-1', 2', 5', 6'-tetrahydropyridinyl)]isoxazole oxalate]
7 | 10000 nM | 11% | CCCN1CCC=C(c2cc(-c3ccc(OC)cc3)no2)C1 [Example 14A, 3-(4'-Methoxyphenyl)-5-[3'-(1'-propyl-1', 2', 5', 6'-tetrahydropyridinyl)]isoxazole oxalate]
8 | 39.1 nM | 7% | CCCN1CCC=C(C2=NOC(c3ccc(OC)cc3)C2)C1 (stereo not shown) [Example 2, 3-[3'-(1'-Propyl-1', 2', 5', 6'-tetrahydropyridinyl) ]-5-(4'-methoxyphenyl)-2-isoxazoline]
9 | 0.45 nM | 10% | CCCN1CCC=C(c2cc(-c3cccc(C)c3)no2)C1 [Example 7A, 3-(3'-Methylphenyl)-5-[3'-(1'-propyl-1', 2', 5', 6'-tetrahydropyridinyl)]isoxazole oxalate]
10 | 1.03 nM | 22% | CCCN1CCC=C(C2=NOC(c3ccc(Cl)cc3)C2)C1 (stereo not shown) [Example 3, 3-[3'-(1'-Propyl-1', 2', 5', 6'-tetrahydropyridinyl)]-5-(4'-chlorophenyl)-2-isoxazoline]
11 | 3640 nM | 40% | CCCN1CCC=C(c2cc(-c3ccccc3C)no2)C1 [Example 8A, 3-(2'-Methylphenyl)-5-[3'-(1'-propyl-1', 2', 5', 6'-tetrahydropyridinyl)]isoxazole oxalate]
12 | 0.78 nM | 10% | CCCN1CCC=C(c2cc(-c3ccccc3)no2)C1 [Example 4A, 3-phenyl-5-[3'-(1'-propyl-1', 2', 5', 6'-tetrahydropyridinyl)]isoxazole oxalate]
13 | 546 nM | 12% | CCCN1CCC=C(c2cc(-c3ccccc3C)on2)C1 [Example 8B, 3-[3'-(1'-propyl-1', 2', 5', 6'-tetrahydropyridinyl)]-5-(2'-methylphenyl)isoxazole oxalate]
14 | 4 nM | 15% | CCCN1CCC=C(c2cc(-c3cccc(OC)c3)no2)C1 [Example 6A, 3-(3'-Methoxyphenyl)-5-[3'-(1'-propyl-1', 2', 5', 6'-tetrahydropyridinyl)]isoxazole oxalate]
15 | 1470 nM | 9% | CCCN1CCC=C(c2cc(-c3ccc(OC)cc3)on2)C1 [Example 14B, 3-[3'-(1'-propyl-1', 2', 5', 6'-tetrahydropyridinyl)]-5-(4'-methoxyphenyl)isoxazole oxalate]
16 | 8.8 nM | 4% | CCCN1CCC=C(c2cc(-c3ccccc3)on2)C1 [Example 4B, 3-[3'-(1'-propyl-1', 2', 5', 6'-tetrahydropyridinyl)]-5-phenylisoxazole oxalate]
17 | 0.1 nM | 7% | CCCN1CCC=C(c2cc(-c3cccc(OC)c3)on2)C1 [Example 6B, 3-[3'-(1'-propyl-1', 2', 5', 6'-tetrahydropyridinyl)]-5-(3'-methoxyphenyl)isoxazole oxalate]

— patent publication US5330994A, “Tetrahydropyridine isoxazoline derivatives” (Warner-Lambert Company, priority 1992, dated 1994)
